Tests used:
[1] = system: mechanical allodynia induced by spinal nerve ligation in rats; assay: Rat (Chung) model of neuropathic pain; assay type: in vivo; conditions: for Withdrawal threshold (g) at peak effect: p.o., male Wistar rats, von Frey, mean ± s.e.m.
Description: The Rat (Chung) Model of Neuropathic Pain
In this model, mechanical allodynia is induced by tight ligation of the left L5 spinal nerve.
Male Wistar rats (228-301 g body weight at time of surgery) were employed in the study. Rats were placed on an elevated (˜40 cm) mesh floor in perspex boxes and the rats' withdrawal threshold to a mechanical stimulus (calibrated von Frey filaments) was measured using filaments of increasing force (2.6-167 mN) as described above. The von Frey filaments were applied to the plantar surface of the paw and threshold response determined using the up and down method. A positive response was noted if the paw was sharply withdrawn. A cut-off of 15 g was selected as the upper limit for testing. Following baseline measurements each animal was anaesthetised and the L5 spinal nerve tightly ligated. The animals were allowed to recover from the surgery for a period of at least three days. On the day of drug administration the paw withdrawal thresholds were re-measured (0 min). Immediately after this reading, the rats were dosed orally with vehicle or test compound and readings measured at various time points after compound administration.
Data were expressed as mean±s.e.m. Statistical analysis was performed using the Kruskal-Wallis one-way analysis of variance, a non-parametric statistical test. Each of the treatment groups were then compared against the vehicle group, using the non-parametric Dunn's test.

[2] = system: mechanical hyperalgesia induced by complete Freund's adjuvant in rats; assay: Mechanical hyperalgesia in the rat (CFA inflammatory pain); assay type: in vivo; conditions: for % Attenuation of hyperalgesia (peak effect): p.o., male Wistar rats, Randall-Sellito, 24 h after CFA, mean ± s.e.m.
Description: Mechanical Hyperalgesia in the Rat
In this rat model of inflammatory pain, inflammation is induced by subcutaneous injection of complete Freund's adjuvant (CFA) into the hind paw. The associated mechanical hyperalgesia is quantified by measuring the reduction in paw withdrawal threshold (PWT) to mechanical compression the paw.
Experiments were conducted using male Wistar rats weighing (141-175 g). In brief, the rats' paw withdrawal threshold (PWT) to a mechanical compression of the hind paw was measured (baseline reading) using a Randall-Sellito apparatus (Ugo Basile). A cut-off of 20 g was employed to minimise tissue damage to the paw. The animals were then lightly anaesthetised with isoflurane (1-3%) and complete Freund's adjuvant (0.1 ml per paw) was injected subcutaneously (s.c.) into the plantar surface of the left hind paw. The animals were then returned to their home cage and left for the inflammation to develop. Twenty four hours after CFA injection, PWT's were re-measured (0 min) and immediately after this reading, rats were dosed orally with either vehicle or test compound (4.4-43.8 μmol/kg p.o. of compound 12). Readings were then made at 3 h post administration. Data were plotted as mean±s.e.m. and compared between groups using the Kruskal-Wallis one-way analysis of variance, a non-parametric statistical test. […] The percent attenuation of mechanical hyperalgesia is calculated as follows: […]

## CC(C)CN1C(=O)CN(Cc2ccc(-c3cccc(CN4CCCCC4)n3)cc2)C1=O [Example 12, 3-Isobutyl-1-(4-(6-(piperidin-1-ylmethyl)pyridin-2-yl)benzyl)imidazolidine-2,4-dione]
[1]; oral, 120 and 180 min post drug administration
  Effect on mechanical allodynia: attenuated mechanical allodynia in a dose-dependent fashion
[1]; oral, mechanical allodynia
  Minimum effective dose (MED): 43.8 µmol/kg
[1]; 4.4 μmol/kg
  Withdrawal threshold (g) at peak effect: 2.40 ± 0.64 g
[1]; 13.2 μmol/kg
  Withdrawal threshold (g) at peak effect: 4.32 ± 1.63 g
[1]; 43.8 μmol/kg, p ≦ 0.01 vs vehicle
  Withdrawal threshold (g) at peak effect: 8.97 ± 2.21 g
[2]; oral, 4.4-43.8 μmol/kg
  Effect on mechanical hyperalgesia induced by CFA: reversed mechanical hyperalgesia induced by CFA in a dose-dependent fashion
[2]; oral, CFA-induced mechanical hyperalgesia
  MED: 13.2 µmol/kg
[2]; 4.4 μmol/kg
  % Attenuation of hyperalgesia (peak effect): 58.64 ± 27.32%
[2]; 13.2 μmol/kg, p ≦ 0.01 vs vehicle
  % Attenuation of hyperalgesia (peak effect): 69.70 ± 12.88 %
[2]; 43.8 μmol/kg, p ≦ 0.001 vs vehicle
  % Attenuation of hyperalgesia (peak effect): 116.74 ± 23.78 %
